Test results published in US9447100B2, “Substituted pyrazolo[1,5-A] pyrimidines as calcium receptor modulating agents” (Takeda Pharmaceutical Company Limited, priority 2002, dated 2016).
Structures can show the parent of a compound that is named as a salt.

melting point [°C] | SMILES
93 to 94 | CCC(CC)(CC)NC(=O)c1cnn2c1NC(c1ccccc1)CC2(C)C (stereo not shown) [Example 616, N-(1,1-diethylpropyl)-7,7-dimethyl-5-phenyl-4,5,6,7-tetrahydropyrazolo[1,5-a]pyrimidine-3-carboxamide]
129 to 130 | CCC1(NC(=O)c2cnn3c2NC(c2ccccc2)CC3(C)C)CCCCCC1 (stereo not shown) [Example 622, N-(1-ethylcycloheptyl)-7,7-dimethyl-5-phenyl-4,5,6,7-tetrahydropyrazolo[1,5-a]pyrimidine-3-carboxamide]
158 to 159 | CCC(CC)(NC(=O)c1cnn2c1NC(c1ccccc1OC)CC2(C)C)c1ccc(C)cc1 (stereo not shown) (as salt: HCl) [Example 964, N-[1-ethyl-1-(4-methylphenyl)propyl]-5-(2-methoxyphenyl)-7,7-dimethyl-4,5,6,7-tetrahydropyrazolo[1,5-a]pyrimidine-3-carboxamide]
128 to 130 | CCC(CC)(NC(=O)c1cnn2c1NC(c1ccccc1Cl)CC2(C)C)c1ccc(C)cc1 (stereo not shown) (as salt: HCl) [Example 961, 5-(2-chlorophenyl)-N-[1-ethyl-1-(4-methylphenyl)propyl]-7,7-dimethyl-4,5,6,7-tetrahydropyrazolo[1,5-a]pyrimidine-3-carboxamide]
151 to 152 | COc1cccc(C2CC(C)(C)n3nc(C)c(C(=O)O)c3N2)c1 (stereo not shown) [Example 947, 5-(3-methoxyphenyl)-2,7,7-trimethyl-4,5,6,7-tetrahydropyrazolo[1,5-a]pyrimidine-3-carboxylic acid]
166 to 169 | CCC(CC)(NC(=O)c1c(C)nn2c1NC(c1ccc(F)cc1)CC2(C)C)c1ccc(C)cc1 (stereo not shown) (as salt: HCl) [Example 971, N-(1-ethyl-1-(4-methylphenyl)propyl)-5-(4-fluorophenyl)-2,7,7-trimethyl-4,5,6,7-tetrahydropyrazolo[1,5-a]pyrimidine-3-carboxamide]
198 to 199 | CCC(CC)(NC(=O)c1cnn2c1NC(c1ccc(F)cc1F)CC2(C)C)c1ccc(C(F)(F)F)cc1 (stereo not shown) [Example 694, 5-(2,4-difluorophenyl)-N-(1-ethyl-1-(4-(trifluoro-methyl)phenyl)propyl)-7,7-dimethyl-4,5,6,7-tetrahydropyrazolo[1,5-a]pyrimidine-3-carboxamide]
150 to 151 | CCC(CC)(Cc1ccc(C)cc1)NC(=O)c1cnn2c1NC(c1ccccc1)CC2(C)C (stereo not shown) [Example 703, N-(1-ethyl-1-(4-methylbenzyl)propyl)-7,7-dimethyl-5-phenyl-4,5,6,7-tetrahydropyrazolo[1,5-a]pyrimidine-3-carboxamide]
156 to 157 | CCc1ccc(C(CC)(CC)NC(=O)c2cnn3c2NC(c2ccccc2)CC3(C)C)cc1 (stereo not shown) [Example 647, N-(1-ethyl-1-(4-ethylphenyl)propyl)-7,7-dimethyl-5-phenyl-4,5,6,7-tetrahydropyrazolo[1,5-a]pyrimidine-3-carboxamide]
177 to 179 | O=C(O)c1cnn2c1NC(c1ccccc1Cl)CC2C(F)(F)F (stereo not shown) [Example 32, 5-(2-chlorophenyl)-7-(trifluoromethyl)-4,5,6,7-tetrahydropyrazolo[1,5-a]pyrimidine-3-carboxylic acid]
130 to 131 | CCC(CC)(NC(=O)c1cnn2c1NC(c1ccccc1)CC2(C)C)C1CCCCC1 (stereo not shown) [Example 432, N-(1-cyclohexyl-1-ethylpropyl)-7,7-dimethyl-5-phenyl-4,5,6,7-tetrahydropyrazolo[1,5-a]pyrimidine-3-carboxamide]
169 to 172 | O=C(NCc1ccc(Oc2ccc(F)cc2)cc1)c1cnn2c1NC(c1ccccc1)CC2C(F)(F)F (stereo not shown) [Example 271, N-(4-(4-fluorophenoxy)benzyl)-5-phenyl-7-(trifluoromethyl)-4,5,6,7-tetrahydropyrazolo[1,5-a]pyrimidine-3-carboxamide]
167 to 168 | Cc1ccc(-n2cc3c(n2)CCN(C(=O)c2cnn4c2NC(c2ccccc2)CC4C(F)(F)F)C3)cc1 (stereo not shown) [Example 276, 2-(4-methylphenyl)-5-((5-phenyl-7-(trifluoromethyl)-4,5,6,7-tetrahydropyrazolo[1,5-a]pyrimidin-3-yl)carbonyl)-4,5,6,7-tetrahydro-2H-pyrazolo[4,3-c]pyridine]
186 to 187 | O=C(O)c1cnn2c1NC(c1ccc(Cl)cc1)CC2C(F)(F)F (stereo not shown) [Example 26, 5-(4-chlorophenyl)-7-(trifluoromethyl)-4,5,6,7-tetrahydropyrazolo[1,5-a]pyrimidine-3-carboxylic acid]
163.5 to 163.6 | CCC(CC)(NC(=O)c1cnn2c1NC(c1ncc(C)s1)CC2(C)C)c1ccc(F)cc1 (stereo not shown) [Example 602, N-(1-ethyl-1-(4-fluorophenyl)propyl)-7,7-dimethyl-5-(5-methyl-1,3-thiazol-2-yl)-4,5,6,7-tetrahydropyrazolo[1,5-a]pyrimidine-3-carboxamide]
240 to 241 | CCC(CC)(NC(=O)c1cnn2c1NC(c1ccccc1)CC2(C)C)c1ccc(CCC(=O)O)cc1 (stereo not shown) [Example 749, 3-(4-(1-(((7,7-dimethyl-5-phenyl-4,5,6,7-tetrahydropyrazolo[1,5-a]pyrimidin-3-yl)carbonyl)amino)-1-ethyl-propyl)phenyl)propanoic acid]
158 to 160 | CCC1(CC)CC(c2ccccc2)Nc2c(C(=O)O)cnn21 (stereo not shown) [Example 37, 7,7-diethyl-5-phenyl-4,5,6,7-tetrahydropyrazolo[1,5-a]pyrimidine-3-carboxylic acid]
132 to 134 | CCC(CC)(c1ccc(C)cc1)c1nnc(-c2c(C)nn3c2N[C@@H](c2ccccc2)CC3(C)C)s1 [Example 1143, (5R)-3-(5-(1-ethyl-1-(4-methylphenyl)propyl)-1,3,4-thiadiazol-2-yl)-2,7,7-trimethyl-5-phenyl-4,5,6,7-tetrahydropyrazolo[1,5-a]pyrimidine]
149 to 150 | CCC(CC)(NC(=O)c1c(C)nn2c1NC(c1cccs1)CC2(C)C)c1ccc(C)cc1 (stereo not shown) (as salt: HCl) [Example 956, N-(1-ethyl-1-(4-methylphenyl)propyl)-2,7,7-trimethyl-5-(2-thienyl)-4,5,6,7-tetrahydropyrazolo[1,5-a]pyrimidine-3-carboxamide]
184 to 185 | COc1ccc(C(NC(=O)c2cnn3c2NC(c2ccccc2)CC3(C)C)c2ccc(OC)cc2)cc1 (stereo not shown) [Example 407, N-(bis(4-methoxyphenyl)methyl)-7,7-dimethyl-5-phenyl-4,5,6,7-tetrahydropyrazolo[1,5-a]pyrimidine-3-carboxamide]
180 to 181 | CCC(CC)(NC(=O)c1cnn2c1NC(c1ccccc1)CC2(C)C)c1ccc(C(=O)OC)cc1 (stereo not shown) [Example 678, methyl 4-(1-(((7,7-dimethyl-5-phenyl-4,5,6,7-tetrahydropyrazolo[1,5-a]pyrimidin-3-yl)carbonyl)amino)-1-ethylpropyl)benzoate]
170 to 171 | CCC(CC)(NC(=O)c1cnn2c1NC(c1ccccc1)CC2(C)C)c1ccc(OCCCC(=O)O)cc1 (stereo not shown) [Example 771, 4-(4-(1-(((7,7-dimethyl-5-phenyl-4,5,6,7-tetrahydropyrazolo[1,5-a]pyrimidin-3-yl)carbonyl)amino)-1-ethyl-propyl)phenoxy)butanoic acid]
